# In US8124793B2, “Derivatives of ethylene methanedisulfonate as cancer chemotherapeutic agents” (priority 2007, dated 2012):
# Legend:
# BT-549 = assay: NCI screen, growth of human tumor cells: Breast Cancer BT-549; assay type: cell-based
# Procedure: (§1) In the NCI screening process, each compound was tested and described by a minimum of 60 data points. The test data include, but are not limited to the type of cancer, the molar concentration used in the screen, and the percent growth of the cancer. In some cases, NMR and elemental analysis were used for structural assignment.
# human cancer cells = assay: NCI screen summary over the cancers tested (negative growth of human cancer cells); assay type: cell-based; conditions: 10^−4 M conc.; cancers with negative growth / cancers tested
# Procedure: as §1
# The derivatives in the tables are grouped using the same category as in the tables 1-6.
# EKVX = assay: NCI screen, growth of human tumor cells: Non-Small Cell Lung EKVX; assay type: cell-based; conditions: EKVX
# Procedure: as §1
# HOP-18 = assay: NCI screen, growth of human tumor cells: Non-Small Cell Lung HOP-18; assay type: cell-based
# Procedure: as §1
# NCI-H226 = assay: NCI screen, growth of human tumor cells: Non-Small Cell Lung NCI-H226; assay type: cell-based
# Procedure: as §1
# SF-539 = assay: NCI screen, growth of human tumor cells: CNS Cancer SF-539; assay type: cell-based; conditions: SF-539 (CNS Cancer), 10^−4 molar
# Procedure, shortened: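 At least 60 data points describe each compound tested by NCI. Cancer type, molar concentration in the screen and percent growth make up the recorded data.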
smiles,measurement,setting,value
"O=S1(=O)OCCOS(=O)(=O)C1(F)Br [NSC 665943, ethylene fluorobromomethanedisulfonate]",% Growth,"BT-549; BT-549, 10^−4 molar",12%
same,% Growth,"BT-549; BT-549, 10^−5 molar",28%
same,% Growth,"BT-549; BT-549, 10^−6 molar",52%
same,% Growth,"BT-549; BT-549, 10^−7 molar",42%
same,% Growth,"BT-549; BT-549, 10^−8 molar",44%
same,Percentage of cancers showing negative growth cancers tested,human cancer cells,10^−4 M conc. = 0/1 = 0%
same,melting point,,82 to 90 °C
"O=S1(=O)OCCOS(=O)(=O)C1Br [NSC 648305, ethylene bromomethanedisulfonate]",% Growth,EKVX; 10^−4 molar,51%
same,% Growth,EKVX; 10^−5 molar,56%
same,% Growth,EKVX; 10^−6 molar,59%
same,% Growth,EKVX; 10^−7 molar,60%
same,% Growth,EKVX; 10^−8 molar,65%
same,% Growth,"HOP-18; HOP-18, 10^−4 molar",−61%
same,% Growth,"HOP-18; HOP-18, 10^−5 molar",68%
same,% Growth,"HOP-18; HOP-18, 10^−6 molar",49%
same,% Growth,"HOP-18; HOP-18, 10^−7 molar",63%
same,% Growth,"HOP-18; HOP-18, 10^−8 molar",63%
same,% Growth,"NCI-H226; NCI-H226, 10^−4 molar",7%
same,% Growth,"NCI-H226; NCI-H226, 10^−5 molar",16%
same,% Growth,"NCI-H226; NCI-H226, 10^−6 molar",20%
same,% Growth,"NCI-H226; NCI-H226, 10^−7 molar",21%
same,% Growth,"NCI-H226; NCI-H226, 10^−8 molar",43%
same,Percentage of cancers showing negative growth cancers tested,human cancer cells,10^−4 M conc. = 1/3 = 33%
same,melting point,,128 to 134 °C
"O=S1(=O)OCCOS(=O)(=O)C1Cl [MWC 91-6, ethylene chloromethanedisulfonate]",melting point,,85 to 88 °C
"O=S1(=O)OCCOS(=O)(=O)C1F [NSC 665942, ethylene fluoromethanedisulfonate]",percent of growth of human tumor cells,SF-539,28%
same,Percentage of cancers showing negative growth cancers tested,human cancer cells,10^−4 M conc. = 0/1 = 0%
same,melting point,,84 to 86 °C
